{"source": "patent US20100255580A1", "about": "“Differentiation of Human Embryonic Stem Cells” (LIFESCCAN, INC., priority 2007, published 2010)", "key": {"[1]": {"system": "human embryonic stem cell line H9", "assay": "Real-time PCR of marker gene expression, H9 on MEF (Examples 2-7)", "type": "cell-based", "method": "Cells were harvested at the time points indicated in FIG. 3 and assayed by PCR for the expression of genes shown (FIGS. 3, 4 and 5).\nAfter this time interval, the cells were then treated for six days with combinations of retinoic acid and FGF as outlined in Example 2, then the culture medium was removed and replaced with medium comprising DMEM/F12 with 2% FBS, containing the γ-secretase inhibitors L-685,458 at 10 μM for three days.\nCells were continuously cultured for another 3 to 5 days in basal medium with retinoic acid at 1 μM, alone or with bFGF. RNA samples were harvested from cells at various time points along this process to help evaluate the directed differentiation of the cells. Furthermore, culture medium and factors were regularly removed and replenished throughout the differentiation protocol.\nRNA extraction, purification, and cDNA synthesis. RNA samples were purified by binding to a silica-gel membrane (Rneasy Mini Kit, Qiagen, CA) in the presence of an ethanol-containing, high-salt buffer followed by washing to remove contaminants. The RNA was further purified using a TURBO DNA-free kit (Ambion, INC), and high-quality RNA was then eluted in water. Yield and purity were assessed by A260 and A280 readings on a spectrophotometer. cDNA copies were made from purified RNA using an ABI (ABI, CA) high capacity cDNA archive kit.\n(§1) Real-time PCR amplification and quantitative analysis.\n(§2) Final data were expressed relative to a calibrator sample."}, "H9P44 cells": {"system": "H9P44 cells", "assay": "RT-PCR of definitive endoderm markers, growth factor combinations in low serum on MEFs (Example 22)", "type": "cell-based, human", "conditions": "H9P44 on MEF; Day 3; normalized to Group 1 (control)", "method": "as §1, §2\nH9P44 cells were plated onto 6 well plates previously coated with mitomycin treated mouse embryonic fibroblasts (MEF). Cells were grown until 70 to 80% confluency in ES cell medium consisting of DMEM/F12 (Invitrogen/GIBCO) supplemented with 20% knockout serum replacement, 100 nM MEM nonessential amino acids, 0.5 mM beta-mercaptoethanol, 2 mM L-glutamine (all from Invitrogen/GIBCO) and 8 ng/ml human basic fibroblast growth factor (bFGF) (R&D Systems).\nGrowth factors were added to increasing concentration of FBS in a stepwise manner as indicated in the following regimen: • Day 0: 0% FBS in DMEM/F12 • Day 1: 0.5% FBS in DMEM/F12 • Day 2: 2% FBS in DMEM/F12. • Day 3: Cells were harvested for FACS analysis and RT-PCR.\nAll growth factors were purchased from R&D Systems, MN. A detailed description and concentration of growth factors for each treatment group is shown below.\nFor RT-PCR analysis, cells were analyzed for expression of selected panel of definitive endoderm markers."}, "[2]": {"system": "human embryonic stem cells (H9, H7) on MATRIGEL", "assay": "Real-time PCR of definitive endoderm markers, DE protocol on […] or fibronectin (feeder-free)", "type": "cell-based", "conditions": "for definitive endoderm markers (real-time PCR): H7 and H9, low serum+AA+/−Wnt ligands, 5 days", "method": "as §1, §2\nDifferentiation of embryonic stem cells to definitive endoderm was carried out as previously described in Nature Biotechnology 23, 1534-1541 (December 2005). […] In all subsequent examples unless otherwise noted, this treatment regimen will be referred to as the definite endoderm (DE) protocol. In parallel, H9, H7, or H1 cells cultured on MEF feeders were also exposed to the same DE protocol outlined above.\nAt day 5, the cultures were analyzed by FACS for CXCR4, E-cadherin, CD9, CD99, and N-cadherin (CD56) expression and by real time PCR for SOX-17, SOX-7, Alpha-fetal protein (AFP), CXCR4, Brychyury (Bry), gooscecoid (GSC), HNF-3 beta, and GATA4. AFP and SOX-7 are regarded as visceral endoderm markers while GATA4, HNF-3beta and SOX-17 represent definite endoderm markers and GSC, Bry, and CXCR4 represent markers of primitive streak.\nIn some of the cultures 20 ng/ml Wnt-3a (Catalog #1324-WN-002, R&D Systems, MN), 20 ng/ml Wnt-5a (Catalog #654-WN-010, R&D Systems, MN), 25 ng/ml Wnt-7a (Catalog #3008-WN-025, R&D Systems, MN), or 25 ng/ml Wnt-5b (Catalog #3006-WN-025, R&D Systems, MN) was added throughout the five day treatment. FIG. 24 depicts phase contrast images of H9P46 definitive endoderm culture in the presence of high concentration of (a) AA or (b) AA+20 ng/ml Wnt-3a. FIG. 25 depicts the expression of CXCR4 by FACS at day 5 for H7P44, and H9P46 lines cultured on […] (1:30 dilution) and exposed to the DE protocol+Wnt-3a (FIG. 25, panels b and d) and −Wnt-3a (FIG. 25, panels a and c).\nControl cultures were not treated with Wnt-3a. FIG. 27, panel a depicts the expression of CXCR4 by FACS at day 5 in the absence of Wnt-3a, b) 10 ng/ml Wnt-3a, c) 20 ng/ml Wnt-3a and d) 50 ng/ml Wnt-3a. In the absence of Wnt-3a the expression of CXCR4 was very low. […] Real-time PCR results (FIG. 28, panel a) also confirm this finding.\nIn a separate study, H9 p52 cells were plated on 1:30 low growth factor […]™. For the first 2 days of the DE protocol a range of Wnt3A doses was used: 10 ng/ml, 5 ng/ml and 1 ng/ml. […] The number of cells at the end of the experiment is noted in FIG. 28, panel c.\nIn order to confirm that the effect of Wnt-3a was through the Wnt pathway, a GSK-3 inhibitor was used to activate the downstream targets of Wnt, such as beta catenin. […] FIG. 29, panel a depicts the expression of CXCR4 by FACS at day 5 in the absence of Wnt-3a or GSK-3B inhibitor, b) +20 ng/ml Wnt-3a, c) +1000 nM GSK-3B inhibitor IX, d) +500 nM GSK-3B inhibitor IX, e) +100 nM GSK-3B inhibitor IX, f) +10 nM GSK-3B inhibitor IX, g) +100 nM GSK-3B inhibitor IX for days 1-2, and h) +10 nM GSK-3B inhibitor IX for days 1-2.\nFIG. 31 panels a-d is for H9P49 cells and panels e-f is for H1P46 cells.\nResults are expressed as fold increase over untreated cells. […] Results are expressed as fold increase over untreated cells.\nH9P55 cells were grown and differentiated on human fibronectin or regular growth factor […]™ (BD Biosciences). lml of DMEM/F12 (Invitrogen/GIBCO) containing 1 ug/ml of human fibronectin (R&D systems, MN) was added to each well of 6 well tissue culture treated dish. Alternatively, regular growth factor […]™ was diluted 1:10 in DMEM/F12 and 1 ml of diluted […]™ was added to each well of 6 well tissue culture treated dish. Cells were passed with collagenase. […] Real-time PCR results (FIG. 39) confirm that formation of definitive endoderm was equivalent on fibronectin and […]™ coated plates.\nTo determine if the addition of Wnt-3a was causing the increase in differentiation, an inhibitor of Wnt-3 signaling was added to the cultures. […] H9 cells were cultured on plates coated with Growth Factor Reduced […] at a 1:30 dilution. The plates were coated with […] for 1 hr at room temperature. […]"}}}
{"molecule": "CC(C)C[C@H](NC(=O)[C@H](Cc1ccccc1)C[C@@H](O)[C@H](Cc1ccccc1)NC(=O)OC(C)(C)C)C(=O)N[C@@H](Cc1ccccc1)C(N)=O", "note": "[L-685,458, reference compound]", "values": [{"measurement": "NeuroD1 expression", "setting": "[1]; L-685,458 10 μM for three days", "value": "increased further"}, {"measurement": "expression of Ngn3 versus activin A alone or retinoic acid with FGFs", "setting": "[1]; L-685,458 10 μM for three days", "value": "approximately 50 fold"}, {"measurement": "increase of insulin expression", "setting": "[1]; L-685,458 10 μM for three days", "value": 70, "unit": "fold"}, {"measurement": "expression of Hes-1", "setting": "[1]; L-685,458 10 μM, maximal inhibition on day three", "value": "decrease"}]}
{"molecule": "Group 9: IL-4 (10 ng/ml)", "values": [{"measurement": "CXCR4 relative expression", "setting": "H9P44 cells", "value": 1.4}, {"measurement": "Goosecoid relative expression", "setting": "H9P44 cells", "value": 0.9}, {"measurement": "HNF-3B relative expression", "setting": "H9P44 cells", "value": 0.89}, {"measurement": "Oct-4 relative expression", "setting": "H9P44 cells", "value": 0.85}, {"measurement": "SOX-2 relative expression", "setting": "H9P44 cells", "value": 1.2}, {"measurement": "Sox17 relative expression", "setting": "H9P44 cells", "value": 1}]}
{"molecule": "fibronectin", "values": [{"measurement": "formation of definitive endoderm (real-time PCR)", "setting": "[2]; H9P55, fibronectin vs MATRIGEL coated plates", "value": "equivalent"}]}
{"molecule": "Wnt-7a: Wnt ligand (Catalog #3008-WN-025, R&D Systems, MN) (protein, UniProt O00755 32-349, looked up) Protein Wnt-7a: LGASIICNKIPGLAPRQRAICQSRPDAIIVIGEGSQMGLDECQFQFRNGRWNCSALGERTVFGKELKVGSREAAFTYAIIAAGVAHAITAACTQGNLSDCGCDKEKQGQYHRDEGWKWGGCSADIRYGIGFAKVFVDAREIKQNARTLMNLHNNEAGRKILEENMKLECKCHGVSGSCTTKTCWTTLPQFRELGYVLKDKYNEAVHVEPVRASRNKRPTFLKIKKPLSYRKPMDTDLVYIEKSPNYCEEDPVTGSVGTQGRACNKTAPQASGCDLMCCGRGYNTHQYARVWQCNCKFHWCCYVKCNTCSERTEMYTCK", "values": [{"measurement": "definitive endoderm markers (real-time PCR)", "setting": "[2]", "value": "minimal impact"}]}
{"molecule": "BMP-4: BMP-4 (Catalog #314-BP-010, R&D Systems, MN) (protein, UniProt P12644 293-408, looked up) Bone morphogenetic protein 4: SPKHHSQRARKKNKNCRRHSLYVDFSDVGWNDWIVAPPGYQAFYCHGDCPFPLADHLNSTNHAIVQTLVNSVNSSIPKACCVPTELSAISMLYLDEYDKVVLKNYQEMVVEGCGCR", "values": [{"measurement": "mesoderm marker BRY", "setting": "[2]; H9P53, BMP-4 25 ng/ml added to the DE protocol", "value": "induce formation"}]}
{"molecule": "Wnt-5b: Wnt ligand (Catalog #3006-WN-025, R&D Systems, MN) (protein, UniProt Q9H1J7 18-359, looked up) Protein Wnt-5b: QLLTDANSWWSLALNPVQRPEMFIIGAQPVCSQLPGLSPGQRKLCQLYQEHMAYIGEGAKTGIKECQHQFRQRRWNCSTADNASVFGRVMQIGSRETAFTHAVSAAGVVNAISRACREGELSTCGCSRTARPKDLPRDWLWGGCGDNVEYGYRFAKEFVDAREREKNFAKGSEEQGRVLMNLQNNEAGRRAVYKMADVACKCHGVSGSCSLKTCWLQLAEFRKVGDRLKEKYDSAAAMRVTRKGRLELVNSRFTQPTPEDLVYVDPSPDYCLRNESTGSLGTQGRLCNKTSEGMDGCELMCCGRGYNQFKSVQVERCHCKFHWCCFVRCKKCTEIVDQYICK", "values": [{"measurement": "definitive endoderm markers (real-time PCR)", "setting": "[2]", "value": "minimal impact"}]}
{"molecule": "Wnt-5a: Wnt ligand (Catalog #654-WN-010, R&D Systems, MN) (protein, UniProt P41221 62-380, looked up) Protein Wnt-5a: IIGAQPLCSQLAGLSQGQKKLCHLYQDHMQYIGEGAKTGIKECQYQFRHRRWNCSTVDNTSVFGRVMQIGSRETAFTYAVSAAGVVNAMSRACREGELSTCGCSRAARPKDLPRDWLWGGCGDNIDYGYRFAKEFVDARERERIHAKGSYESARILMNLHNNEAGRRTVYNLADVACKCHGVSGSCSLKTCWLQLADFRKVGDALKEKYDSAAAMRLNSRGKLVQVNSRFNSPTTQDLVYIDPSPDYCVRNESTGSLGTQGRLCNKTSEGMDGCELMCCGRGYDQFKTVQTERCHCKFHWCCYVKCKKCTEIVDQFVCK", "values": [{"measurement": "definitive endoderm markers (real-time PCR)", "setting": "[2]", "value": "minimal impact"}]}
{"molecule": "DKK1: Wnt Inhibitor; inhibitor of Wnt-3 signaling (protein, UniProt O94907 32-266, looked up) Dickkopf-related protein 1: TLNSVLNSNAIKNLPPPLGGAAGHPGSAVSAAPGILYPGGNKYQTIDNYQPYPCAEDEECGTDEYCASPTRGGDAGVQICLACRKRRKRCMRHAMCCPGNYCKNGICVSSDQNHFRGEIEETITESFGNDHSTLDGYSRRTTLSSKMYHTKGQEGSVCLRSSDCASGLCCARHFWSKICKPVLKEGQVCTKHRRKGSHGLEIFQRCYCGEGLSCRIQKDHHQASNSSRLHTCQRH", "values": [{"measurement": "expression level of differentiation markers (CXCR4, GATA4, HNF-3beta, SOX17, goosecoid)", "setting": "[2]; H9, 100 ng/ml DKK1 with 20 ng/ml Wnt3a and 100 ng/ml activin A, day 5", "value": "dramatically decrease"}]}
